Assay results taken from US20220249401A1, “DIETARY SUPPLEMENT FORMULATED BASED ON ALL-TRANS FORM OF MENAQUINONE-7” (NUTRIOMICS LIMITED, priority 2021, published 2022).

Test system: MGP
Assay: MGP gene expression in chondrocyte cells treated with trans form of MK7
Assay type: cell-based
Conditions: Chondrocyte cells treated with 0.01% (w/w) trans form of MK7; mRNA encoding MGP, relative to control conditions
Description: Example 2—The role of the trans form of MK7 in expression of MGP was measured as compared to control samples. Chondrocyte cells were treated with 0.01% (w/w) trans form of vitamin MK7 and results were reported as fold change in gene expression relative to control conditions.
MGP expression was elevated by 21% in the presence of trans form of MK7 as compared to the control samples as can be concluded from FIG. 2. […] MGP gene expression found to actively be regulated in the presence of trans form of MK7.

CC(C)=CCC/C(C)=C/CC/C(C)=C/CC/C(C)=C/CC/C(C)=C/CC/C(C)=C/CC/C(C)=C/CC1=C(C)C(=O)c2ccccc2C1=O [trans form of MK7, all-trans form of Menaquinone-7]
MGP expression elevated as compared to the control samples: 21%
